Laboratory results from article PMC1262691, “Probing stereoselective inhibition of the acyl binding site of cholesterol esterase with four diastereomers of 2'-N-α-methylbenzylcarbamyl-1, 1'-bi-2-naphthol” (BMC Biochemistry, 2005).
Structures can show the parent of a compound that is named as a salt.

B1: pancreatic cholesterol esterase (CEase) (Sus scrofa) (protein)
chain: KLGSVYTEGGFVEGVNKKLSLLGDSVDIFKGIPFAAAPKALENPQRHPGWQGTLKAKDFKKRCLQATITQDSTYGDEDCLYLNIWVPQGRKEVSRDLPVMIWIYGGAFLMGSGQGANFLSNYLYDGEELATRGNVIVVTFNYRVGPLGFLSTGDANLPGNYGLRDQHMAIAWVKRNIAAFGGDPDNITIFGESAGGASVSLQTLSPYNKGLIKRAISQSGVALSPWAIQKNPLSWAKTIAEKVGCPMDDTARMARCLKITDPRALTLAYKLPLTKQEFPVVHYLGFIPVVDGDFIPDDPVNLYANAADIDYLAGTNDMDGHLFATVDLPAVDKDKKTITEEDFYKLVSGFTIVKGPRGANITFDVYTASWAQDSSQETKKKTVVDLETDILFLMPTETAVAQHRANAKSAQTYTYVFAHPSRMPVYPSWVADHADDLQYVFGKPFATPGYRSQDRTVSKAMIAYWTNFARSGDPNMGGSSVPTHWEPYTLESSKYLEITNKMDSSSMKQDLRTSYLQYWATTYQALPTVADEGAIPVPPTGDSEATPAPPTGDPEATPAPPTGDSEATPAPPPSDAEVAQMPIVIGF

Tests used:
[1] = target: T1, pancreatic cholesterol esterase (CEase) (Sus scrofa, UniProt A0A286ZKB1); assay: time-dependent (pseudo substrate) inhibition kinetics, PNPB hydrolysis at […] nm; assay type: biochemical
T1 construct: gene CEL
T1 sequence (A0A286ZKB1 96-682): B1 chain

[2] = target: T1, pancreatic cholesterol esterase (CEase); assay: protection of the enzyme against carbamate inactivation by […] TFA; assay type: biochemical
purified protein = substrate: CCCC(=O)Oc1ccc([N+](=O)[O-])cc1; assay: purified protein; assay type: biochemical, Sus scrofa

Molecule	KI (inactivation) [1]	further results
C[C@@H](NC(=O)Oc1ccc2ccccc2c1-c1c(O)ccc2ccccc12)c1ccccc1 [(1R, αR)-1, 2'-N-(R)-α-methylbenzylcarbamyl-(R)-1, 1'-bi-2-naphthol]	0.2 ± 0.01 µM	
C[C@@H](NC(=O)Oc1ccc2ccccc2c1-c1c(O)ccc2ccccc12)c1ccccc1 [(1S, αR)-1, 2'-N-(R)-α-methylbenzylcarbamyl-(S)-1, 1'-bi-2-naphthol]	2 ± 0.1 µM	
C[C@H](NC(=O)Oc1ccc2ccccc2c1-c1c(O)ccc2ccccc12)c1ccccc1 [(1S, αS)-1, 2'-N-(S)-α-methylbenzylcarbamyl-(S)-1, 1'-bi-2-naphthol]	6 ± 0.4 µM	
O=C(c1ccccc1)C(F)(F)F [TFA, trifluoroacetophenone]		protection of the enzyme against carbamate inactivation by 2 μM TFA [2]: the enzyme is protected from inhibition by carbamate by binding of TFA
C[C@H](NC(=O)Oc1ccc2ccccc2c1-c1c(O)ccc2ccccc12)c1ccccc1 [(1R, αS)-1, 2'-N-(S)-α-methylbenzylcarbamyl-(R)-1, 1'-bi-2-naphthol]	0.5 ± 0.03 µM	
B1		Km (purified protein): 140 ± 10 µM
